Data from patent US20260102428A1, “COMPOSITIONS AND METHODS FOR THE INHIBITION OF METHICILLIN RESISTANT STAPHYLOCOCCUS AUREUS” (priority 2022, published 2026).
Several values for one entry are separate records, joined by “and”; a condition that tells them apart may be missing. Equal entries are not always repeated. Structures can show the parent of a compound that is named as a salt. Bridge positions count the residues as written; N and C are the ends. Square brackets hold non-standard residues; d marks the D form. Peptide text beside a SMILES is read from it. * marks the point of attachment. Ileψ(thiazoline)Cys = CC[C@H](C)[C@H](N)C1=N[C@H](C(=O)*)CS1; dOrn = NCCC[C@@H](N)C(=O)O

Columns and labels:
[1] = Binding constant determination by UV/Vis-absorption titration
Experimental: Binding constants were determined using UV/Vis-absorption spectroscopy by titrating AVB with Cu(I), Cu(II), and Zn(II). Briefly, 1 mM AVB in 100% anhydrous DMSO was titrated in HEPES (4-(2-hydroxyethyl)-1-piperazineethanesulfonic acid) buffer (pH=7.2-7.4) with 800 μM CuBr, CuSO4, or ZnSO4 at the following concentrations: 0 μM, 25 μM, 50 μM, 75 μM, 100 μM, and 150 μM. Once the gradient of solutions was prepared, full spectrum UV/Vis-absorption spectroscopy was performed to detect characteristic spectral changes that occur as a consequence of metal cation binding. Binding constants were calculated by importing the spectra of individual titrations with each metal into the UV 1:1 Bindfit program.

USA300-LAC [2] = settings: ZnSO4 titrated against compound, 1×RPMI 1640
USA300-LAC [3] = test: Minimal inhibitory concentration by dose-response curves (A600); format: cell-based, Staphylococcus aureus; settings: for Antibacterial activity (MIC) without metal: 1×RPMI 1640, no added metal
MRSA strain USA300-LAC = test: Zn(II)/Cu-dependent antibiotic screening of the Selleckchem bioactives library (resazurin growth readout); format: cell-based, Staphylococcus aureus; settings: compound 10 μM, hit = growth reduced by at least 50%; for Activity class in Cu-dependent screening: with vs without 25 μM CuSO4, 1×RPMI 1640; for Activity class in Zn-dependent screening: with vs without 25 μM ZnSO4, 1×RPMI 1640
human cells = test: Eukaryotic toxicity assays, overall statement; format: cell-based; settings: 0.4-30 μM ± 15 μM Zn, 24 hours
[4] = reported values; cited from earlier work
[5] = test system: erythromycin-resistant group A Streptococcus, methicillin-resistant Staphylococcus aureus, and vancomycin-resistant Enterococcus; settings: cited from earlier work
S. aureus JE2 = format: cell-based, Staphylococcus aureus; settings: 0.25-4× MIC, daily passage 1:100
[6] = test system: clinical multidrug-resistant MRSA isolates; test: Minimal inhibitory concentration against clinical isolates (dose-response curves)
Experimental: Growth was determined after 20 h of incubation at 37° C. using A600 measurements as a readout. Percentage growth was calculated by normalizing the A600 measurements relative to that of the compound-untreated control of each metal condition. Data represent the mean±SEM (n=3 biological replicates, 3 technical replicates each). […] Data represent the mean±SEM (n=3 biological replicates, 3 technical replicates each).
All S. aureus strains utilized in this study were routinely cultured in Mueller-Hinton medium at 37° C. shaking at 180 rpm prior to transfer into experiment-specific media. […] Lastly, clinical multi-drug resistant MRSA strains were isolated, characterized for clinical drug resistance, de-identified, and obtained from UAB Laboratory Medicine.
The minimal inhibitory concentration (MIC) of the tested compounds was determined using dose-response curves as previously described. Briefly, each strain was cultured to mid-exponential phase in MH medium, as determined by OD600 measurement. S. aureus cultures were then normalized to an OD600 of 0.005 for transfer into the assay plates. Each strain was treated with compounds serially titrated in the assay medium in 96-well flat-bottom plastic plates with or without either CuSO4 or ZnSO4. Compound-untreated samples for each metal condition were used as negative controls. S. aureus were treated for 18-20 hours at 37° C. and 5% CO2. Following the treatment period, bacterial growth was determined by measuring the absorbance of each well at 600 nm using a Biotek Cytation 3 plate reader. Measurements were then background adjusted and normalized to either the untreated control or the metal only control.

[7] = CuBr, HEPES buffer pH 7.2-7.4, UV 1:1 Bindfit
[8] = CuSO4, HEPES buffer pH 7.2-7.4, UV 1:1 Bindfit
[9] = ZnSO4, HEPES buffer pH 7.2-7.4, UV 1:1 Bindfit

**Q.** Which KA [1, 7] does the source give for `COc1ccc(C(=O)CC(=O)c2ccc(C(C)(C)C)cc2)cc1` [Avobenzone, 1-(4-tert-butylphenyl)-3-(4-methoxyphenyl)propane-1,3-dione] here?
**A.** Its KA is 6900 M⁻¹.

**Q.** What about the Kd [1, 7] of the same compound?
**A.** The Kd was 115 µM.

**Q.** And the KA [1, 8]?
**A.** The KA was 225,279 M^−1.

**Q.** And the Kd [1, 8]?
**A.** Its Kd is 4.43 µM.

**Q.** What about the Kd ([1]; CuSO4, HEPES buffer pH 7.2-7.4, UV 1:1 Bindfit, listed as AVB) of the same compound?
**A.** The Kd was 4.4 µM.

**Q.** And the KA [1, 9]?
**A.** The KA was 168,982 M^−1.

**Q.** What about the Kd [1, 9] of the same compound?
**A.** Its Kd is 5.92 µM.

**Q.** And the Kd ([1]; ZnSO4, HEPES buffer pH 7.2-7.4, UV 1:1 Bindfit, listed as AVB)?
**A.** The Kd was 5.9 µM.

**Q.** What about the “Zn concentration required for full activity / MIC” value (USA300-LAC [2]) of the same compound?
**A.** Its value is 1.25 to 10 µM.

**Q.** And the “Antibacterial activity (MIC) without metal” value (USA300-LAC [3])?
**A.** Its value is “no antibacterial activity”.

**Q.** What about the “Activity class in Cu-dependent screening” value (MRSA strain USA300-LAC) of the same compound?
**A.** The value was “activated by both Zn and Cu”.

**Q.** And the “Activity class in Zn-dependent screening” value (MRSA strain USA300-LAC)?
**A.** Its value is “activated by both Zn and Cu”.

**Q.** And the Cytotoxicity (human cells)?
**A.** Its Cytotoxicity is “no relevant cytotoxicity”.

**Q.** Which KA [1, 7] does the source give for `CC[C@H](C)[C@H](N)C1=N[C@H](C(=O)N[C@@H](CC(C)C)C(=O)N[C@H](CCC(=O)O)C(=O)N[C@H](C(=O)N[C@H]2CCCCNC(=O)[C@H](CC(N)=O)NC(=O)[C@@H](CC(=O)O)NC(=O)[C@H](Cc3cnc[nH]3)NC(=O)[C@@H](Cc3ccccc3)NC(=O)[C@H]([C@@H](C)CC)NC(=O)[C@@H](CCCN)NC2=O)[C@@H](C)CC)CS1` [Bacitracin] ({Ileψ(thiazoline)Cys}-L[dE]IK[dOrn]I[dF]H[dD]N; lactam 4-C) here?
**A.** The KA was 9299 M⁻¹.

**Q.** And the Kd [1, 7]?
**A.** The Kd was 108 µM.

**Q.** What about the KA [1, 8] of the same compound?
**A.** Its KA is 738,233 M^−1.

**Q.** And the Kd [1, 8]?
**A.** Its Kd is 1.4 µM and 1.35 µM.

**Q.** What about the KA [1, 9] of the same compound?
**A.** Its KA is 172,757 M^−1.

**Q.** And the Kd [1, 9]?
**A.** Its Kd is 5.7 µM and 5.79 µM.

**Q.** What about the “Zn concentration required for full activity / MIC” value (USA300-LAC [2]) of the same compound?
**A.** Its value is 10 µM.

**Q.** What about the “Antibacterial activity (MIC) without metal” value (USA300-LAC [3]) of the same compound?
**A.** Its value is “completely inactive”.

**Q.** And the MIC (USA300-LAC [3]; with 25 μM CuSO4, 1×RPMI 1640, 20 h 37° C.)?
**A.** Its MIC is “could not be activated by Cu”.

**Q.** What about the “Activity class in Cu-dependent screening” value (MRSA strain USA300-LAC) of the same compound?
**A.** Its value is “not independent or Cu-dependent action”.

**Q.** What about the “Activity class in Zn-dependent screening” value (MRSA strain USA300-LAC) of the same compound?
**A.** Its value is “Zn-dependent”.

**Q.** With `O=C(O)CN(CCN(CC(=O)O)CC(=O)O)CC(=O)O` [EDTA, 2,2′,2″,2′″-(Ethane-1,2-diyldinitrilo)tetraacetic acid] as the compound, how does the “KD of high-affinity metal chelators” value [4] read?
**A.** Its value is “picomolar to femtomolar range”.

**Q.** With `CN(C)Cc1ccc2c(Cl)cc(Cl)c(O)c2n1` [PTB2] as the compound, how does the “Zinc concentrations required for antibacterial activity” value [5] read?
**A.** Its value is 400 to 600 µM.

**Q.** For `CO[C@H]1/C=C/O[C@@]2(C)Oc3c(C)c(O)c4c(O)c(c(/C=N/N5CCN(C)CC5)c(O)c4c3C2=O)NC(=O)/C(C)=C\C=C\[C@H](C)[C@H](O)[C@@H](C)[C@@H](O)[C@@H](C)[C@H](OC(C)=O)[C@@H]1C` [Rifampicin], which “Day from which resistant clones could be isolated” value (S. aureus JE2) is on record?
**A.** Its value is 5 days.

**Q.** With `c1ccc(CN(CCN(Cc2ccccn2)Cc2ccccn2)Cc2ccccn2)nc1` [TPEN, N,N,N′,N′-tetrakis(2-pyridinylmethyl)-1,2-ethanediamine] as the compound, how does the “KD of high-affinity metal chelators” value [4] read?
**A.** Its value is “picomolar to femtomolar range”.

**Q.** Which “Activity class in Zn-dependent screening” value (MRSA strain USA300-LAC) does the source give for `c1ccc(-c2ccc(C(c3ccccc3)n3ccnc3)cc2)cc1` (stereo not shown) [bifonazole] here?
**A.** Its value is “Zn-activated”.

**Q.** Which “Activity class in Zn-dependent screening” value (MRSA strain USA300-LAC) does the source give for `Clc1ccccc1C(c1ccccc1)(c1ccccc1)n1ccnc1` [clotrimazole] here?
**A.** Its value is “Zn-activated”.

**Q.** Which “Activity class in Zn-dependent screening” value (MRSA strain USA300-LAC) does the source give for `CC/C(=C(\c1ccccc1)c1ccc(OCCN(C)C)cc1)c1ccccc1` [tamoxifen] here?
**A.** The value was “Zn-activated”.

**Q.** For `Clc1ccc(C(Cn2ccnc2)OCc2ccsc2Cl)c(Cl)c1` (stereo not shown) [tioconazole], which “Activity class in Zn-dependent screening” value (MRSA strain USA300-LAC) is on record?
**A.** Its value is “Zn-activated”.

**Q.** With `CN(C)CCOc1ccc(/C(=C(/CCCl)c2ccccc2)c2ccccc2)cc1` [toremifene citrate] as the compound, how does the “Activity class in Zn-dependent screening” value (MRSA strain USA300-LAC) read?
**A.** Its value is “Zn-activated”.

**Q.** Which “MIC of bacitracin-Zn relative to that of AVB-Zn” value (USA300-LAC [3]; with 25 μM ZnSO4) does the source give for bacitracin-Zn here?
**A.** Its value is “four-fold higher”.

**Q.** What about the MIC / resistance ([6]; isolate CI-2, with 25 μM ZnSO4) of the same compound?
**A.** Its MIC / resistance is “fully resistant”.

**Q.** And the MIC / resistance ([6]; isolate CI-3, with 25 μM ZnSO4)?
**A.** Its MIC / resistance is “fully resistant”.

**Q.** And the MIC ([6]; isolate CI-4, with 25 μM ZnSO4)?
**A.** Its MIC is 10 µM.

**Q.** And the MIC ([6]; isolate CI-5, with 25 μM ZnSO4)?
**A.** Its MIC is 10 µM.

**Q.** What about the MIC ([6]; isolate CI-1320, with Zn) of the same compound?
**A.** The MIC was 2 µM.

**Q.** And the MIC / resistance ([6]; isolate CI-1321, with Zn)?
**A.** Its MIC / resistance is “partially resistance”.

**Q.** And the MIC / resistance ([6]; isolate CI-1323, with Zn)?
**A.** Its MIC / resistance is “resistant to bacitracin-Zn at all concentrations tested”.

**Q.** What about the MIC / resistance ([6]; isolate CI-1324, with Zn) of the same compound?
**A.** Its MIC / resistance is “resistant to bacitracin-Zn at all concentrations tested”.

**Q.** What about the MIC ([6]; isolate CI-1328, with Zn) of the same compound?
**A.** Its MIC is 2 µM.
